Read-outs that look alike come from different tables or passages of the source.
How the values were obtained:
Assay in all cases: Test E pre-/postemergence plant response
Format in all cases: in vivo
[1] = system: windgrass (Apera spica-venti); conditions: scale 0 to 100, read-out: Plant response rating, Windgrass; for pest or weed control at 16 g/ha: 16 g ai/ha; for pest or weed control at 62 g/ha: 62 g ai/ha; for pest or weed control at 125 g/ha: 125 g ai/ha
Summary of the method: (§1)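 Visual scores on a 0–100 scale (100 = complete control) were assigned against untreated controls 7–21 days after treatment in a controlled environment. Compounds, formulated with solvent plus surfactant, were applied to pre-emergence silt-loam sowings or to 1- to 4-leaf plants (2–18 cm) in potting medium.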

[2] = system: field poppy (Papaver rhoeas); conditions: scale 0 to 100, read-out: Plant response rating, Field Poppy; for pest or weed control at 16 g/ha: 16 g ai/ha; for pest or weed control at 31 g/ha: 31 g ai/ha; for pest or weed control at 62 g/ha: 62 g ai/ha; for pest or weed control at 125 g/ha: 125 g ai/ha
Summary of the method: as §1

[3] = system: downy bromegrass (Bromus tectorum); conditions: scale 0 to 100, read-out: Plant response rating, Bromegrass, Downy; for pest or weed control at 16 g/ha: 16 g ai/ha; for pest or weed control at 31 g/ha: 31 g ai/ha; for pest or weed control at 62 g/ha: 62 g ai/ha; for pest or weed control at 125 g/ha: 125 g ai/ha
Summary of the method: as §1

[4] = system: wild buckwheat (Polygonum convolvulus); conditions: Fallopia convolvulus, scale 0 to 100, read-out: Plant response rating, Buckwheat, Wild; for pest or weed control at 16 g/ha: 16 g ai/ha; for pest or weed control at 31 g/ha: 31 g ai/ha; for pest or weed control at 62 g/ha: 62 g ai/ha; for pest or weed control at 125 g/ha: 125 g ai/ha
Summary of the method: as §1

[5] = system: kochia (Kochia scoparia); conditions: Bassia scoparia, scale 0 to 100, read-out: Plant response rating, Kochia; for pest or weed control at 16 g/ha: 16 g ai/ha; for pest or weed control at 31 g/ha: 31 g ai/ha; for pest or weed control at 62 g/ha: 62 g ai/ha; for pest or weed control at 125 g/ha: 125 g ai/ha
Summary of the method: as §1

[6] = system: chamomile (scentless chamomile, Matricaria inodora); conditions: Tripleurospermum inodorum, scale 0 to 100, read-out: Plant response rating, Chamomile; for pest or weed control at 16 g/ha: 16 g ai/ha; for pest or weed control at 31 g/ha: 31 g ai/ha; for pest or weed control at 62 g/ha: 62 g ai/ha; for pest or weed control at 125 g/ha: 125 g ai/ha
Summary of the method: as §1

[7] = system: wild radish (Raphanus raphanistrum); conditions: scale 0 to 100, read-out: Plant response rating, Radish, Wild; for pest or weed control at 16 g/ha: 16 g ai/ha; for pest or weed control at 31 g/ha: 31 g ai/ha; for pest or weed control at 62 g/ha: 62 g ai/ha; for pest or weed control at 125 g/ha: 125 g ai/ha
Summary of the method: as §1

[8] = system: wild oat (Avena fatua); conditions: scale 0 to 100, read-out: Plant response rating, Oat, Wild; for pest or weed control at 16 g/ha: 16 g ai/ha; for pest or weed control at 31 g/ha: 31 g ai/ha; for pest or weed control at 62 g/ha: 62 g ai/ha; for pest or weed control at 125 g/ha: 125 g ai/ha
Summary of the method: as §1

[9] = system: wild mustard (Sinapis arvensis); conditions: Brassica, scale 0 to 100, read-out: Plant response rating, Mustard, Wild; for pest or weed control at 16 g/ha: 16 g ai/ha; for pest or weed control at 31 g/ha: 31 g ai/ha; for pest or weed control at 62 g/ha: 62 g ai/ha; for pest or weed control at 125 g/ha: 125 g ai/ha
Summary of the method: as §1

[10] = system: deadnettle (henbit deadnettle, Lamium amplexicaule); conditions: pre-emergence, Preemergence, scale 0 to 100, read-out: Plant response rating, Deadnettle
Summary of the method: as §1

[11] = system: speedwell (bird's-eye speedwell, Veronica persica); conditions: scale 0 to 100, read-out: Plant response rating, Speedwell; for pest or weed control at 16 g/ha: 16 g ai/ha; for pest or weed control at 62 g/ha: 62 g ai/ha; for pest or weed control at 125 g/ha: 125 g ai/ha
Summary of the method: as §1

[12] = post-emergence, 31 g ai/ha, Postemergence

Compound: Fc1cccc(Oc2ncc(Cl)cn2)c1-c1cc(C(F)F)no1 [Compound 144, 5-chloro-2-[2-[3-(difluoromethyl)-5-isoxazolyl]-3-fluorophenoxy]pyrimidine]
- pest or weed control at 16 g/ha ([1]; post-emergence, Postemergence): 10%
- pest or weed control at 31 g/ha [1, 12]: 20%
- pest or weed control at 62 g/ha ([1]; post-emergence, Postemergence): 25%
- pest or weed control at 125 g/ha ([1]; post-emergence, Postemergence): 55%
- pest or weed control at 16 g/ha ([1]; pre-emergence, Preemergence): 10%
- pest or weed control at 62 g/ha ([1]; pre-emergence, Preemergence): 100%
- pest or weed control at 125 g/ha ([1]; pre-emergence, Preemergence): 100%
- pest or weed control at 16 g/ha ([2]; post-emergence, Postemergence): 100%
- pest or weed control at 31 g/ha ([2]; post-emergence, Postemergence): 100%
- pest or weed control at 62 g/ha ([2]; post-emergence, Postemergence): 100%
- pest or weed control at 125 g/ha ([2]; post-emergence, Postemergence): 100%
- pest or weed control at 16 g/ha ([2]; pre-emergence, Preemergence): 100%
- pest or weed control at 31 g/ha ([2]; pre-emergence, Preemergence): 100%
- pest or weed control at 62 g/ha ([2]; pre-emergence, Preemergence): 100%
- pest or weed control at 125 g/ha ([2]; pre-emergence, Preemergence): 100%
- pest or weed control at 16 g/ha ([3]; post-emergence, Postemergence): 25%
- pest or weed control at 31 g/ha ([3]; post-emergence, Postemergence): 35%
- pest or weed control at 62 g/ha ([3]; post-emergence, Postemergence): 40%
- pest or weed control at 125 g/ha ([3]; post-emergence, Postemergence): 75%
- pest or weed control at 16 g/ha ([3]; pre-emergence, Preemergence): 10%
- pest or weed control at 31 g/ha ([3]; pre-emergence, Preemergence): 10%
- pest or weed control at 62 g/ha ([3]; pre-emergence, Preemergence): 35%
- pest or weed control at 125 g/ha ([3]; pre-emergence, Preemergence): 55%
- pest or weed control at 16 g/ha ([4]; post-emergence, Postemergence): 100%
- pest or weed control at 31 g/ha ([4]; post-emergence, Postemergence): 95%
- pest or weed control at 62 g/ha ([4]; post-emergence, Postemergence): 100%
- pest or weed control at 125 g/ha ([4]; post-emergence, Postemergence): 100%
- pest or weed control at 16 g/ha ([4]; pre-emergence, Preemergence): 85%
- pest or weed control at 31 g/ha ([4]; pre-emergence, Preemergence): 100%
- pest or weed control at 62 g/ha ([4]; pre-emergence, Preemergence): 100%
- pest or weed control at 125 g/ha ([4]; pre-emergence, Preemergence): 100%
- pest or weed control at 16 g/ha ([5]; post-emergence, Postemergence): 100%
- pest or weed control at 31 g/ha ([5]; post-emergence, Postemergence): 100%
- pest or weed control at 62 g/ha ([5]; post-emergence, Postemergence): 100%
- pest or weed control at 125 g/ha ([5]; post-emergence, Postemergence): 100%
- pest or weed control at 16 g/ha ([5]; pre-emergence, Preemergence): 98%
- pest or weed control at 31 g/ha ([5]; pre-emergence, Preemergence): 100%
- pest or weed control at 62 g/ha ([5]; pre-emergence, Preemergence): 100%
- pest or weed control at 125 g/ha ([5]; pre-emergence, Preemergence): 100%
- pest or weed control at 16 g/ha ([6]; post-emergence, Postemergence): 80%
- pest or weed control at 31 g/ha ([6]; post-emergence, Postemergence): 75%
- pest or weed control at 62 g/ha ([6]; post-emergence, Postemergence): 80%
- pest or weed control at 125 g/ha ([6]; post-emergence, Postemergence): 95%
- pest or weed control at 16 g/ha ([6]; pre-emergence, Preemergence): 15%
- pest or weed control at 31 g/ha ([6]; pre-emergence, Preemergence): 20%
- pest or weed control at 62 g/ha ([6]; pre-emergence, Preemergence): 100%
- pest or weed control at 125 g/ha ([6]; pre-emergence, Preemergence): 100%
- pest or weed control at 16 g/ha ([7]; post-emergence, Postemergence): 100%
- pest or weed control at 31 g/ha ([7]; post-emergence, Postemergence): 100%
- pest or weed control at 62 g/ha ([7]; post-emergence, Postemergence): 100%
- pest or weed control at 125 g/ha ([7]; post-emergence, Postemergence): 100%
- pest or weed control at 16 g/ha ([7]; pre-emergence, Preemergence): 80%
- pest or weed control at 31 g/ha ([7]; pre-emergence, Preemergence): 80%
- pest or weed control at 62 g/ha ([7]; pre-emergence, Preemergence): 100%
- pest or weed control at 125 g/ha ([7]; pre-emergence, Preemergence): 100%
- pest or weed control at 16 g/ha ([8]; post-emergence, Postemergence): 20%
- pest or weed control at 31 g/ha ([8]; post-emergence, Postemergence): 25%
- pest or weed control at 62 g/ha ([8]; post-emergence, Postemergence): 65%
- pest or weed control at 125 g/ha ([8]; post-emergence, Postemergence): 90%
- pest or weed control at 16 g/ha ([8]; pre-emergence, Preemergence): 35%
- pest or weed control at 31 g/ha ([8]; pre-emergence, Preemergence): 30%
- pest or weed control at 62 g/ha ([8]; pre-emergence, Preemergence): 65%
- pest or weed control at 125 g/ha ([8]; pre-emergence, Preemergence): 75%
- pest or weed control at 16 g/ha ([9]; post-emergence, Postemergence): 100%
- pest or weed control at 31 g/ha ([9]; post-emergence, Postemergence): 100%
- pest or weed control at 62 g/ha ([9]; post-emergence, Postemergence): 100%
- pest or weed control at 125 g/ha ([9]; post-emergence, Postemergence): 100%
- pest or weed control at 16 g/ha ([9]; pre-emergence, Preemergence): 90%
- pest or weed control at 31 g/ha ([9]; pre-emergence, Preemergence): 100%
- pest or weed control at 62 g/ha ([9]; pre-emergence, Preemergence): 100%
- pest or weed control at 125 g/ha ([9]; pre-emergence, Preemergence): 100%
- pest or weed control at 16 g/ha ([10]; 16 g ai/ha): 90%
- pest or weed control at 31 g/ha ([10]; 31 g ai/ha): 100%
- pest or weed control at 62 g/ha ([10]; 62 g ai/ha): 100%
- pest or weed control at 125 g/ha ([10]; 125 g ai/ha): 100%
- pest or weed control at 16 g/ha ([11]; post-emergence, Postemergence): 100%
- pest or weed control at 31 g/ha [11, 12]: 100%
- pest or weed control at 62 g/ha ([11]; post-emergence, Postemergence): 100%
- pest or weed control at 125 g/ha ([11]; post-emergence, Postemergence): 100%
- pest or weed control at 16 g/ha ([11]; pre-emergence, Preemergence): 100%
- pest or weed control at 62 g/ha ([11]; pre-emergence, Preemergence): 100%
- pest or weed control at 125 g/ha ([11]; pre-emergence, Preemergence): 100%
